How the values were obtained:
[1] = molecular target: T1, Inhibitor of nuclear factor kappa-B kinase subunit epsilon (Homo sapiens) (UniProt Q14164); experiment: Percentage IKKepsilon activity remaining in the presence of 0.1uM inhibitor; settings: filed as antagonist
T1 sequence (whole entry): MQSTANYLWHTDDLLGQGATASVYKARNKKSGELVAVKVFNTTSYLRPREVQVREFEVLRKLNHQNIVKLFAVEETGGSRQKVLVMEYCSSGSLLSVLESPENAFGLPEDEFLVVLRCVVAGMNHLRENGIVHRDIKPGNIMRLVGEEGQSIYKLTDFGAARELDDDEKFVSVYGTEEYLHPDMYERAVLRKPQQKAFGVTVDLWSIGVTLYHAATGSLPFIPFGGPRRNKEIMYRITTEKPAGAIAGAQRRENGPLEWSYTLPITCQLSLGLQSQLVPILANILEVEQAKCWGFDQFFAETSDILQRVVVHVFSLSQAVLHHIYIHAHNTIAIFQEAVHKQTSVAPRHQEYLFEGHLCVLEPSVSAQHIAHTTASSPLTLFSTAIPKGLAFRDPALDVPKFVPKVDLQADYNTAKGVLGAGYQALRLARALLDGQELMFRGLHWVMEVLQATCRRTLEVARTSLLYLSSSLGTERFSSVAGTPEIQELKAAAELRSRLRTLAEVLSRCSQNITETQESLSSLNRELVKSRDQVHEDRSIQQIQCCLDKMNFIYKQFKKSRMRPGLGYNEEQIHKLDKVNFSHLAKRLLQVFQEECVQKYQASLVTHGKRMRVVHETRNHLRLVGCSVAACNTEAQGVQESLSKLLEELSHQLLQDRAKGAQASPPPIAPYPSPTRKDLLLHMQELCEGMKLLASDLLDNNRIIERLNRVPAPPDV

[2] = molecular target: T2, Serine/threonine-protein kinase 3 (Homo sapiens) (UniProt Q13188); experiment: Percentage MST2 activity remaining in the presence of 3uM inhibitor
T2 sequence (whole entry): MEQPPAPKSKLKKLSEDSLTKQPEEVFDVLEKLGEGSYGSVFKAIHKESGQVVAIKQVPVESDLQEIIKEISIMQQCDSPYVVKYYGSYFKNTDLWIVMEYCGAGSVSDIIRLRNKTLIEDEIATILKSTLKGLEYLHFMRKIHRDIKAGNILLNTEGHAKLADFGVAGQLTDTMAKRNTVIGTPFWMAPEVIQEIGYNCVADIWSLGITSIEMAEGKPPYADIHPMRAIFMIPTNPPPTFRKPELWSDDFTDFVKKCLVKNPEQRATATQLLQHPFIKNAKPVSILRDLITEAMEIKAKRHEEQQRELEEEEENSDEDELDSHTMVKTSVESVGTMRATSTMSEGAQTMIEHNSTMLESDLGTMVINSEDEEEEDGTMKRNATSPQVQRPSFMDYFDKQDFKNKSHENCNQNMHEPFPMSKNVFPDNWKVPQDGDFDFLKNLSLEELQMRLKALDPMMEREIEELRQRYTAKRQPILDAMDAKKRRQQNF

[3] = molecular target: T3, MAP kinase-activated protein kinase 5 (Homo sapiens) (UniProt Q8IW41); experiment: Percentage PRAK activity remaining in the presence of 3uM inhibitor
T3 sequence (whole entry): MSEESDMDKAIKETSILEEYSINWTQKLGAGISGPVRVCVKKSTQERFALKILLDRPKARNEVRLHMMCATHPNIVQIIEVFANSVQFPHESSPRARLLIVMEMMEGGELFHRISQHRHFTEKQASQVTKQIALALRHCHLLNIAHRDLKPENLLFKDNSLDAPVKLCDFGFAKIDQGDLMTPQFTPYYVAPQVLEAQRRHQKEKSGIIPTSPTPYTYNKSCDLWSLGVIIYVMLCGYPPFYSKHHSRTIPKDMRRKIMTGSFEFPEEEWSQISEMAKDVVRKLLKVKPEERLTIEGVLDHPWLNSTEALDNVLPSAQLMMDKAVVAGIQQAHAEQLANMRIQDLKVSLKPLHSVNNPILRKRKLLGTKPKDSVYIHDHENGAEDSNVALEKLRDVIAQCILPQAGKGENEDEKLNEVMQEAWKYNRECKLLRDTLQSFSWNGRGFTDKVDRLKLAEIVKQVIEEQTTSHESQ

[4] = molecular target: Calcium/calmodulin-dependent protein kinase kinase 2 (Homo sapiens) (UniProt Q96RR4); experiment: Percentage CaMKKbeta activity remaining in the presence of 3uM inhibitor; settings: filed as antagonist
[5] = molecular target: Serine/threonine-protein kinase Chk2 (Homo sapiens) (UniProt O96017); experiment: Percentage CHK2 activity remaining in the presence of 3uM inhibitor
[6] = molecular target: T4, Serine/threonine-protein kinase pim-3 (Homo sapiens, UniProt Q86V86); experiment: Percentage PIM3 activity remaining in the presence of 3uM inhibitor
[7] = molecular target: Dual specificity tyrosine-phosphorylation-regulated kinase 1A (Homo sapiens) (UniProt Q13627); experiment: Percentage DYRK1A activity remaining in the presence of 3uM inhibitor
[8] = molecular target: RAC-beta serine/threonine-protein kinase (Homo sapiens) (UniProt P31751); experiment: Percentage PKBbeta activity remaining in the presence of 3uM inhibitor
[9] = molecular target: Serine/threonine-protein kinase PLK1 (Homo sapiens, UniProt P53350); experiment: Percentage PLK1 activity remaining in the presence of 3uM inhibitor
[10] = molecular target: Serine/threonine-protein kinase PAK 6 (Homo sapiens) (UniProt Q9NQU5); experiment: Percentage PAK6 activity remaining in the presence of 3uM inhibitor
[11] = molecular target: MAP kinase-activated protein kinase 2 (Homo sapiens) (UniProt P49137); experiment: Percentage MAPKAPK2 activity remaining in the presence of 3uM inhibitor
[12] = molecular target: Serine/threonine-protein kinase PAK 4 (Homo sapiens, UniProt O96013); experiment: Percentage PAK4 activity remaining in the presence of 3uM inhibitor
[13] = molecular target: Homeodomain-interacting protein kinase 3 (Homo sapiens) (UniProt Q9H422); experiment: Percentage HIPK3 activity remaining in the presence of 3uM inhibitor
[14] = molecular target: Calcium/calmodulin-dependent protein kinase type 1 (Homo sapiens) (UniProt Q14012); experiment: Percentage CaMK1 activity remaining in the presence of 3uM inhibitor
[15] = molecular target: Proto-oncogene tyrosine-protein kinase LCK (Mus musculus, UniProt P06240); experiment: Inhibition of Lck in the presence of 50uM ATP
[16] = molecular target: T4, Serine/threonine-protein kinase pim-3; experiment: Percentage PIM3 activity remaining in the presence of 2uM inhibitor; settings: filed as antagonist
[17] = molecular target: Cyclin-dependent kinase 2/cyclin A (Homo sapiens) (UniProt P24941+P20248+P78396); experiment: Percentage CDK2-cyclinA activity remaining in the presence of 2uM inhibitor; format: protein-complex assay
[18] = molecular target: RAC-beta serine/threonine-protein kinase (Homo sapiens) (UniProt P31751); experiment: Percentage PKBbeta activity remaining in the presence of 2uM inhibitor
[19] = molecular target: Protein kinase C alpha type (Homo sapiens) (UniProt P17252); experiment: Percentage PKCalpha activity remaining in the presence of 2uM inhibitor
[20] = molecular target: Serine/threonine-protein kinase Chk2 (Homo sapiens) (UniProt O96017); experiment: Percentage CHK2 activity remaining in the presence of 2uM inhibitor
[21] = molecular target: cAMP-dependent protein kinase catalytic subunit alpha (Homo sapiens, UniProt P17612); experiment: Percentage PKA activity remaining in the presence of 2uM inhibitor
[22] = molecular target: Ribosomal protein S6 kinase alpha-1 (Homo sapiens) (UniProt Q15418); experiment: Percentage RSK1 activity remaining in the presence of 2uM inhibitor; settings: filed as antagonist
Sequence of Ribosomal protein S6 kinase alpha-1 (Homo sapiens) (Q15418 whole entry): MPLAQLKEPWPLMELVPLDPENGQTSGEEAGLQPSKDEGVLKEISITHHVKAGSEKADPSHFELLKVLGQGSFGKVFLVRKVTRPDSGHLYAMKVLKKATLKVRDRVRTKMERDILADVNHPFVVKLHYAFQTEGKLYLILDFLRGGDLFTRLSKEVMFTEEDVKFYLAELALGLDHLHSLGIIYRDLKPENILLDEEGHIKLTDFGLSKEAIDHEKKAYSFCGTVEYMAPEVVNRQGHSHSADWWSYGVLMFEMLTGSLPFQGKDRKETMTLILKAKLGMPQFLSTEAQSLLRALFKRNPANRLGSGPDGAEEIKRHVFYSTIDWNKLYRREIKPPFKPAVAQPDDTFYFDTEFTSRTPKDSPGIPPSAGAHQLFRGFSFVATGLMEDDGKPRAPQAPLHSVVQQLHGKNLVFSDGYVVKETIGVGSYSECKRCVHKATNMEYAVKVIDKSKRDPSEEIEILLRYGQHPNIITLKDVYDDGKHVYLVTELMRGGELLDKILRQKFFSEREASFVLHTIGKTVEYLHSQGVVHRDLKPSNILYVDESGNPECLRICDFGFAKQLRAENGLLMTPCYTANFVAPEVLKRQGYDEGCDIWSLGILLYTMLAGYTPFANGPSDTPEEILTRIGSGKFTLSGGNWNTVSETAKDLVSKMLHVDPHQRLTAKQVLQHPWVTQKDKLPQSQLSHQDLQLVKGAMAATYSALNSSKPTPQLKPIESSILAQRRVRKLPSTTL

Sequence of RAC-beta serine/threonine-protein kinase (Homo sapiens) (P31751 whole entry): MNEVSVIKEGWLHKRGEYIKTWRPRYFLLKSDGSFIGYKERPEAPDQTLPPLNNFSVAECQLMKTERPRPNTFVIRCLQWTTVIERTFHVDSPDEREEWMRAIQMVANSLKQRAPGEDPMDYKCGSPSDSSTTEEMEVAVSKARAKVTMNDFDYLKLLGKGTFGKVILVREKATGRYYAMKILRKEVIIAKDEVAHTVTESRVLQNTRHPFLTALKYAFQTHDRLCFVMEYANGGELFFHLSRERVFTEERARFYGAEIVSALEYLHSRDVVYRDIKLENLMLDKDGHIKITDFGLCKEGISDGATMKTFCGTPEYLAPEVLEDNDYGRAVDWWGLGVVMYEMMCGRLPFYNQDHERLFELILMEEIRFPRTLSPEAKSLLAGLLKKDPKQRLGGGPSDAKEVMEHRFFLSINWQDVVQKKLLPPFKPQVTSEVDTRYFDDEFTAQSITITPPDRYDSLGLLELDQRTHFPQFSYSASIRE
Sequence of Serine/threonine-protein kinase Chk2 (Homo sapiens) (O96017 whole entry): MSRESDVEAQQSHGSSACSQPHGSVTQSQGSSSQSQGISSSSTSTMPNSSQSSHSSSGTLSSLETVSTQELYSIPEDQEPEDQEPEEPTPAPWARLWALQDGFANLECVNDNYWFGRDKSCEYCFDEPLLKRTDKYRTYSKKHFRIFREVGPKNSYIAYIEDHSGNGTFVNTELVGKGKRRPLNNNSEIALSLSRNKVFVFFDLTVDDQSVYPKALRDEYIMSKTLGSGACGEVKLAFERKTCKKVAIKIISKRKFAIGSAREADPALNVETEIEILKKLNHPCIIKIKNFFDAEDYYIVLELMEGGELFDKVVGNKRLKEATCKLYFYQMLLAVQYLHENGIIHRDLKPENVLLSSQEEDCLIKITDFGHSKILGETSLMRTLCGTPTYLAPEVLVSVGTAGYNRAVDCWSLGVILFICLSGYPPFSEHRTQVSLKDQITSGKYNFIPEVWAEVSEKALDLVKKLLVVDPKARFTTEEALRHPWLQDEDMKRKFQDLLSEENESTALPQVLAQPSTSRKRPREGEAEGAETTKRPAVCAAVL
Sequence of Calcium/calmodulin-dependent protein kinase type 1 (Homo sapiens) (Q14012 whole entry, looked up): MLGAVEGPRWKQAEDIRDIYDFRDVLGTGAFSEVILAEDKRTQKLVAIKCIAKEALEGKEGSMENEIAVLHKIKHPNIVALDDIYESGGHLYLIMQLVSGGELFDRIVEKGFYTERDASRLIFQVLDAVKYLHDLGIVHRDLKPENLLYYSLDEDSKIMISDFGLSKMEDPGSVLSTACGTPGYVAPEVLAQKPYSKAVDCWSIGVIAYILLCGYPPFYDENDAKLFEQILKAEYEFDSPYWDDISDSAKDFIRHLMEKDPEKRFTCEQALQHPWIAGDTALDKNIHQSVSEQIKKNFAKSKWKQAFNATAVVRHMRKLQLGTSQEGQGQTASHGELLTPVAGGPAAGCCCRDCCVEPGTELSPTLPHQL
Sequence of Serine/threonine-protein kinase PLK1 (P53350 whole entry): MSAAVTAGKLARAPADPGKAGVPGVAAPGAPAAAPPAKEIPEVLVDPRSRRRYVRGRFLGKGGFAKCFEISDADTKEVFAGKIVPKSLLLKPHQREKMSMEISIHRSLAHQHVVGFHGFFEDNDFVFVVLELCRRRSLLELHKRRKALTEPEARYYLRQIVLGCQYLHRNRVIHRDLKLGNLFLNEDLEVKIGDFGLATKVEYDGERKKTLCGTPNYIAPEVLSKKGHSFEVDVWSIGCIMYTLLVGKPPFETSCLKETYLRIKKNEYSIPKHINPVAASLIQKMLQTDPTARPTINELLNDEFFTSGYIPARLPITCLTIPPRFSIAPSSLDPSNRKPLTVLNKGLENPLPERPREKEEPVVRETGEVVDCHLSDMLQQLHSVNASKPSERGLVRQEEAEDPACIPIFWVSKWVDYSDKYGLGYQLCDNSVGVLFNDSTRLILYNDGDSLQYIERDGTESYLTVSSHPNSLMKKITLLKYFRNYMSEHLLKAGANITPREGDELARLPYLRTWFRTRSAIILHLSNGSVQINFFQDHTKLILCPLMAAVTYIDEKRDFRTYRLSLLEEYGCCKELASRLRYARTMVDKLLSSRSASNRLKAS
Sequence of MAP kinase-activated protein kinase 2 (Homo sapiens) (P49137 whole entry, looked up): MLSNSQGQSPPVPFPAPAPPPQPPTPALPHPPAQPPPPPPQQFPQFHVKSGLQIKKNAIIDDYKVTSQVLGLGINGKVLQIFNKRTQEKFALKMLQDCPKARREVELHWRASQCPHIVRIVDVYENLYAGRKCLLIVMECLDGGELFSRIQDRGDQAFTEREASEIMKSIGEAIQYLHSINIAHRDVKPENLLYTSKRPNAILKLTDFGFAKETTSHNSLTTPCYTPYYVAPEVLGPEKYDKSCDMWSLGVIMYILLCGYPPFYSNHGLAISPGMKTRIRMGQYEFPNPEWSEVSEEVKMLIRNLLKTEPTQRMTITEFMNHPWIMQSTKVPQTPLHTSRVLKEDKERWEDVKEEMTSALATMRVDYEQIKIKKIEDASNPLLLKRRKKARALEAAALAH
Sequence of Proto-oncogene tyrosine-protein kinase LCK (P06240 whole entry): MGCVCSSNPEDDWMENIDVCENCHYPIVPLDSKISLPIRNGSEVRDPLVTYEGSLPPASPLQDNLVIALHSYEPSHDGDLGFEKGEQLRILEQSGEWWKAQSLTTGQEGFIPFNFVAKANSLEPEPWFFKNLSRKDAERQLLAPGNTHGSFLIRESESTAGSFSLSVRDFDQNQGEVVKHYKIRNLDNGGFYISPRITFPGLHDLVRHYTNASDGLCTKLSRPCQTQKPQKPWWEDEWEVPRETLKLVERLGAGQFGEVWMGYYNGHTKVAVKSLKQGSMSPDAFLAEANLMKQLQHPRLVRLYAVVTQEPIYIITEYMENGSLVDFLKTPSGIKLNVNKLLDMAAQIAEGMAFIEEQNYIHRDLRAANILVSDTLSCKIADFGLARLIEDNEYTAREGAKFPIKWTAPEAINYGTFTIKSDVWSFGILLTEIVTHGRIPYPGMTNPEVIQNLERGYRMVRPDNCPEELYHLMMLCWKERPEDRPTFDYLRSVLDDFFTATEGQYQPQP

With `O=C(NCCCNc1nc(Nc2cccc(NC(=O)N3CCCC3)c2)ncc1I)c1cccs1` the Activity [1] was 0%.

`Cc1ccc(-c2c(C(=O)CF)n(CCCO)c3ncnc(N)c23)cc1` showed an Activity [2] of 76%, an Activity [3] of 97% and an Activity [4] of 49%. The Activity [5] was 81%, the Activity [6] was 56% and the Activity [7] was 86%. The Activity [8] was 97%, the Activity [9] was 82% and the Activity [10] was 93%. For the same molecule, the Activity [11] was 94%, the Activity [12] was 91% and the Activity [13] was 79%. The Activity [14] was 77% and the IC50 [15] was 750 nM (antagonist).

`Cn1cc(C2=C(c3ccc(Cl)cc3Cl)C(=O)NC2=O)c2ccccc21` was tested, and the Activity [16] was 29%, the Activity [17] was 52% and the Activity [18] was 96%. It also gave an Activity [19] of 73%, an Activity [20] of 93% and an Activity [21] of 88%. It also gave an Activity [22] of 50%.
